One molecule from patent US20190008864A1, “PHARMACEUTICAL COMPOSITION CONTAINING GPR119 LIGAND AS EFFECTIVE INGREDIENT FOR PREVENTING OR TREATING NON-ALCOHOLIC STEATOHEPATITIS” (PHARMEDIX.CO., LTD., priority 2014, published 2019) can be followed below.

Experiment [1] has as its system fatty liver model induced by a high-fat diet. Put plainly: Fatty liver model induced by high-fat diet. The class given is in vivo, C57BL/6J mice. The source says:
In the present invention, a high fat diet (HFD: 60% fat calories, Research diets, D12492, US) was used as an obesity induction diet.
Six-week-old male C57BL/6J mice (Central Lab. Animal Inc., Seoul, Korea) were acclimated to an experimental environment for one week while being fed solid food, and then randomly divided into a control group and an experimental group for a high-fat diet using a randomized block design. The animal groups were fed for 12 weeks, and thus, fatty liver animal models were established. Fatty liver development was determined according to blood biochemical and histochemical analysis methods. The mice were orally fed with the high-fat diet only for six weeks, and in combination with a GPR119 ligand (10 mg/kg) suspended in 40% PEG400 once a day for five days every week. Choline-deficient, amino acid-fixed high-fat diet steatohepatitis models were prepared by feeding six-week-old male C57BL/6J mice (Central Lab. Animal Inc., Seoul) with a diet containing 60 kcal fat and 0.1% methionine for four weeks. After terminating the experiment, experimental animals fasted for 12 hours or more. Subsequently, blood, liver, and adipose tissues in intestines (epididymal fat, kidney-surrounding fat) were collected from the animals that had been anesthetized with diethyl ether and then washed with a 0.1 M phosphate buffered saline (pH 7.4), followed by being weighed. Blood collected from abdominal aortas was centrifuged at 3000 rpm for 20 minutes using SST tubes to separate serum.
A total cholesterol concentration and a total glucose concentration in serum from each of the aforementioned experimental animals raised for 12 weeks were measured as follows. Each of the total cholesterol concentration and the total glucose concentration in serum was measured twice by means of a commercial measurement kit (Bio Clinical Systems). The amount of alanine aminotransferase (ALT) in blood used as a liver function index was measured by means of a commercial analysis kit (Bio Clinical Systems, Korea).
The collected liver tissues were fixed with a 10% neutral formalin solution and then subjected to a common fixation procedure and dehydration process, followed by embedding the same in paraffin. The embedded tissues were sectioned to a thickness of 4 μm and stained with H&E. The stained tissues were observed by means of an optical microscope.
A predetermined amount of each of the liver tissues was homogenized in liquid nitrogen and a cell lysis buffer in a mortar, and then a lysed tissue solution was transferred to a new tube, followed by vortexing. […] A middle layer of the centrifuged solution was collected and then subjected to protein quantification by the Bradford assay. […] Expression changes of FAS and SREBP-1c proteins were measured by western blotting. […]

The subject of experiment [2] is TNF-alpha mRNA. The experiment can be described thus: TNF-alpha mRNA after LPS stimulation in RAW264.7 cells (real time PCR). In kind it is cell-based, mouse. As to conditions: RAW264.7, 3 μM, 10 ng/ml LPS, 6 hours. Here is the method: (§1) RAW264.7 cells cultured in 6-well plates were stabilized for 12 hours in a serum-free medium, and then exposed to 3 μM of MBX-2982 and 10 ng/ml of LPS. After 6 hours, RNA samples extracted with TRIZOL were reversely transcribed using a cDNA synthesis PCR kit to synthesize cDNAs. The cDNAs obtained through reverse transcription were used as a template, and primers for 5′ and 3′ flanking sequences of cDNAs to be amplified were as follows. Real time PCR (Mini-Opticon, Bio-Rad, US) was carried out and the expression levels of mRNA were investigated.
(§2) Inflammatory marker change results evaluated after LPS stimulation for RAW264.7 cells, which were derived from a mouse macrophage cell line, are illustrated in FIG. 18.
On the technique in general: Real-time PCR tracks product formation cycle by cycle.

In experiment [3] the test system is MCP-1 mRNA. The experiment can be described thus: MCP-1 mRNA after LPS stimulation in RAW264.7 cells (real time PCR). In kind it is cell-based, mouse. As to conditions: RAW264.7, 3 μM, 10 ng/ml LPS, 6 hours. Here is the method:
as §1, §2

Experiment [4] concerns iNOS protein. Put plainly: iNOS protein expression after LPS stimulation in RAW264.7 cells (western blot). The following applies: RAW264.7, 3 μM, 10 ng/ml LPS, 6 hours. In kind it is cell-based, mouse. Here is the method:
RAW264.7 cells cultured in 6-well plates were stabilized for 12 hours in a serum-free medium, and then exposed to 3 μM of MBX-2982 and 10 ng/ml of LPS. After 6 hours, the cells were lysed in cytolysis buffer and voltexed. Centrifugation was conducted at 14,000 rpm and 4° C. for 20 minutes. A supernatant of the centrifuged solution was collected and then subjected to protein quantification by the Bradford assay. 15 μg of a protein thereof was electrophoresed on an SDS polyacrylamide gel, and then expression changes of iNOS and COX-2 proteins were measured by western blotting. Expression changes in triplicate experiments were measured with a densitometer and are shown as graphs.
As described above, RAW264.7 cells, which were derived from a mouse macrophage cell line, was subjected to LPS stimulation, and then inflammatory marker changes therein were evaluated. Results are illustrated in FIG. 17.
A general note: A western blot detects proteins with antibodies after separation by electrophoresis.

For experiment [5], the system named is mouse liver tissue and hepatocyte line. Put plainly: Summary statement: mouse liver tissue and hepatocyte line treated with the two GPR119 ligands. In kind it is cell-based.

As to `CCc1cnc(N2CCC(c3nc(COc4ccc(-n5cnnn5)cc4)cs3)CC2)nc1` [MBX2982, 4-((4-(1H-tetrazol-1-yl)phenoxy)methyl)-2-(1-(5-ethylpyrimidin-2-yl)piperidin-4-yl)thiazole], the fatty liver development entry in experiment [1] (animal models fed with a high-fat diet) was “completely inhibited”. Moreover, in experiment [1] (high-fat diet mice, 10 mg/kg oral), the “fat weight in the tissue” value is reported as “significantly decreased”. The “mRNA level of GPR119 in liver” value in experiment [1] (mice administered ligand, compared to a control group) is given as “seven-fold increased”. For the same molecule, in experiment [2], the “expression of TNF-alpha mRNA” value is reported as “decreased”. In addition, the “expression of MCP-1 mRNA” value in experiment [3] is given as “decreased”. Moreover, the “expression of iNOS protein” value in experiment [4] is reported as “decreased”. Further, in experiment [5], the “activity of SREBP-1c” value was “inhibited”, the “expression of GPR119” value is on record as “increased”, the “expression of acetyl CoA carboxylase (ACC)” value is “inhibited” and the “expression of fatty acid synthase (FAS)” value was “inhibited”. Further, the “expression of stearoyl-CoA desaturase (SCD)” value in experiment [5] is recorded as “inhibited”.
